Assay results: patent publication US12590062B2, “PD-1/PD-L1 inhibitors” (Gilead Sciences, Inc., priority 2017, dated 2026)

How the values were obtained:
PD-1/PD-L1 interaction = target: T1, PD-1/PD-L1 interaction (Homo sapiens, UniProt Q9NZQ7); test: PD-1/PD-L1 NFAT reporter co-culture assay; type: cell-based; conditions: Jurkat PD-1 NFAT-luciferase cells co-cultured with aAPC-PD-L1 CHO cells, 6 hrs at 37° C.; read-out: EC50 NFAT Luciferase
T1 construct: expressed in transfected cells; host or cells: CHO cells (aAPC-PD-L1) co-cultured with Jurkat cells overexpressing PD-1 and an NFAT-luciferase reporter
T1 sequence (Q9NZQ7 19-290): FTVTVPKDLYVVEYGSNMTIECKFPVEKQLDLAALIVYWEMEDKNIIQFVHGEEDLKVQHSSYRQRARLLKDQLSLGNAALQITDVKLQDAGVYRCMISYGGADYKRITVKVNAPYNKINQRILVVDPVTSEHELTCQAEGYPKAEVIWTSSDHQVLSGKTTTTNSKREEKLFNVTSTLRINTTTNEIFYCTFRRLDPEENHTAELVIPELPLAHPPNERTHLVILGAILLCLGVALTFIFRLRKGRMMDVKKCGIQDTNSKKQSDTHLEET
Procedure, shortened: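 Compounds are scored by restoration of NFAT-luciferase signal in PD-1-expressing Jurkat cells cultured 6 h at 37 °C on CHO cells presenting anti-CD3 and PD-L1; EC50 values derive from four-parameter curve fitting.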

[1] = target: T2, interaction between the recombinant extracellular domain (ECD) of PD-1 and native cell-bound PD-L1 (Homo sapiens, UniProt Q9NZQ7); test: CHO/PD-L1 cell capture assay; type: cell-based; conditions: CHO cells overexpressing PD-L1, pre-incubated 1 hr with compound, captured on biotinylated Fc-PD-1 coated plates, 75 min at room temperature
T2 construct: expressed in transfected cells
T2 sequence (Q9NZQ7 19-290): as above
Procedure, shortened: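 EC50 values came from four-parameter fits of counts of Draq5-stained CHO-PD-L1 cells retained on plate-bound biotinylated Fc-PD-1 ECD, enumerated by high-content imaging. Cells in PBS pH 7.4 with EDTA and 2% BSA had 1 hr compound pre-incubation, then 75 min capture at room temperature.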

PD-L1 = target: T3, PD-L1 (Homo sapiens, UniProt Q9NZQ7); test: PD-L1/PD-L1 dimerization biochemical protein-protein interaction assay (ALPHA); type: binding; conditions: compound-induced PD-L1 dimerization, head prints '1 nM' (0.5 nM His-tagged PD-L1 and 0.5 nM FLAG-tagged PD-L1), read-out: AC50 PDL1 Dimer Alpha 1 nM
T3 construct: determine if they can specifically dimerize the extracellular domains of PD-L1
T3 sequence (Q9NZQ7 19-238 limits assumed): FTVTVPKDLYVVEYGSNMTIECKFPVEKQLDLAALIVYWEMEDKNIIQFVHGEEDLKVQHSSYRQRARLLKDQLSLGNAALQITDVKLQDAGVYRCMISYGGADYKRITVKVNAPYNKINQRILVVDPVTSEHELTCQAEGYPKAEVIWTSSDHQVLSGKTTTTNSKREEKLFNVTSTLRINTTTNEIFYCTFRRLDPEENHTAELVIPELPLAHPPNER
T3 sequence (Q9NZQ7 19-238 limits assumed): as above
Procedure, shortened: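 After 2 h at 25 °C with compound, His- and FLAG-tagged PD-L1 ECDs (each 0.5 nM final; 25 mM Hepes pH 7.4, 150 mM NaCl) were detected by sequential anti-His acceptor and anti-FLAG donor bead incubations. Dose-response curves fitted to four-parameter equation for AC50.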

For `Cc1c(COc2nc(OC[C@@H]3CCC(=O)N3)c(CNCC(=O)O)cc2Br)cccc1-c1cccc(COc2nc(OC[C@@H]3CCC(=O)N3)c(CNCC(=O)O)cc2Br)c1C` [Example 130, 2,2′-((((((2,2′-dimethyl-[1,1′-biphenyl]-3,3′-diyl)bis(methylene))bis(oxy))bis(5-bromo-2-(((S)-5-oxopyrrolidin-2-yl)methoxy)pyridine-6,3-diyl))bis(methylene))bis(azanediyl))diacetic acid], the EC50 (PD-1/PD-L1 interaction) was 164 nM, the EC50 [1] was 123 nM and the AC50 (PD-L1) was 237 nM.
In the case of `Cc1c(COc2cc(OCc3cncc(C#N)c3)c(CNC(CO)(CO)CO)cc2Cl)cccc1-c1cccc(COc2cc(OCc3cncc(C#N)c3)c(CNC(CO)(CO)CO)cc2Cl)c1C` [Example 282, 5,5′-((((((2,2′-dimethyl-[1,1′-biphenyl]-3,3′-diyl)bis(methylene))bis(oxy))bis(4-chloro-6-(((1,3-dihydroxy-2-(hydroxymethyl)propan-2-yl)amino)methyl)-3,1-phenylene))bis(oxy))bis(methylene))dinicotinonitrile], the EC50 (PD-1/PD-L1 interaction) is reported as 463 nM, the EC50 [1] is reported as 254 nM and the AC50 (PD-L1) is reported as 327 nM.
In the case of `Cc1c(COc2cc(OCc3cncc(C#N)c3)c(CN[C@@H](C)C(=O)O)cc2Cl)cccc1-c1cccc(-c2ccc(OCCN[C@@H](C)C(=O)O)c([N+](=O)[O-])c2)c1C` [Example 93, (4-((4″-(2-(((S)-1-carboxyethyl)amino)ethoxy)-2,2′-dimethyl-3″-nitro-[1,1′:3′,1″-terphenyl]-3-yl)methoxy)-5-chloro-2-((5-cyanopyridin-3-yl)methoxy)benzyl)-L-alanine], the EC50 (PD-1/PD-L1 interaction) is reported as 127 nM, the EC50 [1] is reported as 44.4 nM and the AC50 (PD-L1) is reported as 145 nM.
`COc1nc(OCc2cccc(-c3cccc(COc4nc(OC)c(CN[C@@H](C)CC(=O)O)cc4Cl)c3C)c2C)c(Cl)cc1CN[C@@H](C)CC(=O)O` [Example 74, (3S,3′S)-3,3′-((((((2,2′-dimethyl-[1,1′-biphenyl]-3,3′-diyl)bis(methylene))bis(oxy))bis(5-chloro-2-methoxypyridine-6,3-diyl))bis(methylene))bis(azanediyl))dibutyric acid] was tested, and the EC50 (PD-1/PD-L1 interaction) was 138 nM, the EC50 [1] was 176 nM and the AC50 (PD-L1) was ≥ 10000 nM.
In the case of `Cc1c(COc2nc(OCc3cc(C#N)cc(C#N)c3)c(CN[C@@](C)(CO)C(=O)O)cc2Cl)cccc1-c1cccc(COc2nc(OCc3cc(C#N)cc(C#N)c3)c(CN[C@@](C)(CO)C(=O)O)cc2Cl)c1C` [Example 123, (2S,2′S)-2,2′-((((((2,2′-dimethyl-[1,1′-biphenyl]-3,3′-diyl)bis(methylene))bis(oxy))bis(5-chloro-2-((3,5-dicyanobenzyl)oxy)pyridine-6,3-diyl))bis(methylene))bis(azanediyl))bis(3-hydroxy-2-methylpropanoic acid)], the EC50 (PD-1/PD-L1 interaction) is reported as 75 nM, the EC50 [1] is reported as 137 nM and the AC50 (PD-L1) is reported as 198 nM.
`Cc1c(COc2nc(OCCCCC#N)c(CNC[C@@H](O)CC(=O)O)cc2Br)cccc1-c1cccc(COc2nc(OCCCCC#N)c(CNC[C@@H](O)CC(=O)O)cc2Br)c1C` [Example 143, (3S,3′S)-4,4′-((((((2,2′-dimethyl-[1,1′-biphenyl]-3,3′-diyl)bis(methylene))bis(oxy))bis(5-bromo-2-(4-cyanobutoxy)pyridine-6,3-diyl))bis(methylene))bis(azanediyl))bis(3-hydroxybutanoic acid)] was tested, and the EC50 (PD-1/PD-L1 interaction) was 217 nM, the EC50 [1] was 296 nM and the AC50 (PD-L1) was 395 nM.
In the case of `COc1nc(OCc2cccc(-c3cccc(COc4nc(OC)c(CNC5(C(=O)O)CC5)cc4Cl)c3C)c2C)c(Cl)cc1CNC1(C(=O)O)CC1` [Example 91, 1,1′-((((((2,2′-dimethyl-[1,1′-biphenyl]-3,3′-diyl)bis(methylene))bis(oxy))bis(5-chloro-2-methoxypyridine-6,3-diyl))bis(methylene))bis(azanediyl))bis(cyclopropane-1-carboxylicacid)], the EC50 (PD-1/PD-L1 interaction) is reported as 523 nM, the EC50 [1] is reported as 196 nM and the AC50 (PD-L1) is reported as ≥ 10000 nM.
With `COc1nc(OCc2cccc(-c3cccc(COc4nc(OC)c(CN[C@](C)(CO)C(=O)O)cc4Cl)c3C)c2C)c(Cl)cc1CN[C@](C)(CO)C(=O)O` [Example 43, (2R,2′R)-2,2′-((((((2,2′-dimethyl-[1,1′-biphenyl]-3,3′-diyl)bis(methylene))bis(oxy))bis(5-chloro-2-methoxypyridine-6,3-diyl))bis(methylene))bis(azanediyl))bis(3-hydroxy-2-methylpropanoic acid)] the EC50 (PD-1/PD-L1 interaction) was 79 nM, the EC50 [1] was 65.2 nM and the AC50 (PD-L1) was ≥ 10000 nM.
`Cc1c(COc2nc(OCCC(N)=O)c(CNCC(=O)O)cc2Cl)cccc1-c1cccc(COc2nc(OCCC(N)=O)c(CNCC(=O)O)cc2Cl)c1C` [Example 146, 2,2′-((((((2,2′-dimethyl-[1,1′-biphenyl]-3,3′-diyl)bis(methylene))bis(oxy))bis(2-(3-amino-3-oxopropoxy)-5-chloropyridine-6,3-diyl))bis(methylene))bis(azanediyl))diacetic acid] showed an EC50 (PD-1/PD-L1 interaction) of 2300 nM, an EC50 [1] of 184 nM and an AC50 (PD-L1) of 334 nM.
In the case of `Cc1c(COc2nc(OCCc3cncnc3)c(CNCC(=O)O)cc2Cl)cccc1-c1cccc(COc2nc(OCCc3cncnc3)c(CNCC(=O)O)cc2Cl)c1C` [Example 133, 2,2′-((((((2,2′-dimethyl-[1,1′-biphenyl]-3,3′-diyl)bis(methylene))bis(oxy))bis(5-chloro-2-(2-(pyrimidin-5-yl)ethoxy)pyridine-6,3-diyl))bis(methylene))bis(azanediyl))diacetic acid], the EC50 (PD-1/PD-L1 interaction) is reported as 288 nM, the EC50 [1] is reported as 129 nM and the AC50 (PD-L1) is reported as 282 nM.
With `Cc1c(COc2nc(OCc3cc(C#N)cc(C#N)c3)c(CN[C@@H](CO)C(=O)O)cc2Cl)cccc1-c1cccc(COc2nc(OCc3cc(C#N)cc(C#N)c3)c(CN[C@@H](CO)C(=O)O)cc2Cl)c1C` [Example 124, (2S,2′S)-2,2′-((((((2,2′-dimethyl-[1,1′-biphenyl]-3,3′-diyl)bis(methylene))bis(oxy))bis(5-chloro-2-((3,5-dicyanobenzyl)oxy)pyridine-6,3-diyl))bis(methylene))bis(azanediyl))bis(3-hydroxypropanoic acid)] the EC50 (PD-1/PD-L1 interaction) was 74 nM, the EC50 [1] was 147 nM and the AC50 (PD-L1) was ≥ 10000 nM.
For `Cc1c(COc2cc(OCc3cncc(C#N)c3)c(CNC[C@@H](O)CC(=O)O)cc2Cl)cccc1-c1cccc(-c2ccc(OCCNC[C@@H](O)CC(=O)O)cn2)c1C` [Example 112, (S)-4-((4-((3′-(5-(2-(((S)-3-carboxy-2-hydroxypropyl)amino)ethoxy)pyridin-2-yl)-2,2′-dimethyl-[1,1′-biphenyl]-3-yl)methoxy)-5-chloro-2-((5-cyanopyridin-3-yl)methoxy)benzyl)amino)-3-hydroxybutanoic acid], the EC50 (PD-1/PD-L1 interaction) was 286 nM, the EC50 [1] was 34.4 nM and the AC50 (PD-L1) was 184 nM.
`COc1nc(OCc2cccc(-c3cccc(COc4nc(OC)c(CN(CCCC(N)=O)CC(=O)O)cc4Br)c3C)c2C)c(Br)cc1CN(CCCC(N)=O)CC(=O)O` [Example 117, 2,2′-((((((2,2′-dimethyl-[1,1′-biphenyl]-3,3′-diyl)bis(methylene))bis(oxy))bis(5-bromo-2-methoxypyridine-6,3-diyl))bis(methylene))bis((4-amino-4-oxobutyl)azanediyl))diacetic acid] showed an EC50 (PD-1/PD-L1 interaction) of 779 nM, an EC50 [1] of 158 nM and an AC50 (PD-L1) of 361 nM.
`COc1nc(OCc2cccc(-c3cccc(COc4nc(OC)c(C5=NCCN5)cc4Cl)c3C)c2C)c(Cl)cc1C1=NCCN1` [Example 30, 6,6′-(((2,2′-dimethyl-[1,1′-biphenyl]-3,3′-diyl)bis(methylene))bis(oxy))bis(5-chloro-3-(4,5-dihydro-1H-imidazol-2-yl)-2-methoxypyridine)] was tested, and the EC50 (PD-1/PD-L1 interaction) was ≥ 50000 nM, the EC50 [1] was 52.1 nM and the AC50 (PD-L1) was 369 nM.
For `COc1nc(OCc2cccc(-c3cccc(COc4nc(OC)c(CNCCC(=O)O)cc4Cl)c3C)c2C)c(Cl)cc1CNCCC(=O)O` [Example 172, 3,3′-((((((2,2′-dimethyl-[1,1′-biphenyl]-3,3′-diyl)bis(methylene))bis(oxy))bis(5-chloro-2-methoxypyridine-6,3-diyl))bis(methylene))bis(azanediyl))dipropionic acid], the EC50 (PD-1/PD-L1 interaction) was 139 nM, the EC50 [1] was 50.6 nM and the AC50 (PD-L1) was ≥ 10000 nM.
Molecule `Cc1c(COc2cc(OCc3cncc(C#N)c3)c(CNC[C@@H](O)CC(=O)O)cc2Cl)cccc1-c1cccc(-c2ccc3sc(CNC[C@@H](O)CC(=O)O)cc3c2)c1C` [Example 211] has an EC50 (PD-1/PD-L1 interaction) of 304 nM, an EC50 [1] of 45.6 nM and an AC50 (PD-L1) of 81.2 nM.
With `COc1nc(OCc2cccc(-c3cccc(COc4nc(OC)c(CN[C@H](C)C(=O)O)cc4Cl)c3C)c2C)c(Cl)cc1CN[C@H](C)C(=O)O` [Example 90, (2R,2′R)-2,2′-((((((2,2′-dimethyl-[1,1′-biphenyl]-3,3′-diyl)bis(methylene))bis(oxy))bis(5-chloro-2-methoxypyridine-6,3-diyl))bis(methylene))bis(azanediyl))dipropionic acid] the EC50 (PD-1/PD-L1 interaction) was 113 nM, the EC50 [1] was 219 nM and the AC50 (PD-L1) was ≥ 10000 nM.
